Data published in the supplement of paper PMC13207355.

Experiments:
Conditions in all cases: exposure time: 72 h
FT3469 [1] = normal neural stem cell line; assay: surviving fraction (nuclei count normalised to DMSO); higher = more cells surviving (less toxic)
E13 [2] = patient-derived glioblastoma stem cells of classical subtype; assay: as above
E57 [3] = patient-derived glioblastoma stem cells of mesenchymal subtype; assay: as above
E34 [4] = patient-derived glioblastoma stem cells of proneural subtype; assay: as above
E31 [5] = patient-derived glioblastoma stem cells of proneural subtype; assay: as above
E28 [6] = patient-derived glioblastoma stem cells of classical subtype; assay: as above
E21 [7] = patient-derived glioblastoma stem cells of mesenchymal subtype; assay: as above
FT3469 [8] = assay: phenotypic distance (Euclidean, principal components) from DMSO controls (arbitrary units); higher = stronger morphological change
E13 [9] = assay: as above
E57 [10] = assay: as above
E34 [11] = assay: as above
E31 [12] = assay: as above
E28 [13] = assay: as above
E21 [14] = assay: as above
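For phenotypic distance (Euclidean, principal components) from DMSO controls in this document: cell Painting imaging in 384-well plates, CellProfiler features reduced to at least 20 principal components, Euclidean distance versus same-plate DMSO vehicle wells (0.1% v/v), median over six images per well.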
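For surviving fraction (nuclei count normalised to DMSO) in this document: nuclei counted by high-content imaging of Hoechst-stained cells in laminin-coated 384-well plates, relative to 0.1% DMSO vehicle wells, with staurosporine as cell-death control.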

COc1ccc(C(=O)CC(=O)c2ccc(C(C)(C)C)cc2)cc1 [Avobenzone]
Conditions	phenotypic distance	surviving fraction
E13 [2], 4.1 nM	–	0.902
E13 [2], 12.3 nM	–	1.02
E13 [2], 37 nM	–	1.08
E13 [2], 111.1 nM	–	0.948
E13 [2], 333.3 nM	–	1.11
E13 [2], 1000 nM	–	1.07
E13 [2], 3000 nM	–	0.8
E13 [9], 4.1 nM	1.11	–
E13 [9], 12.3 nM	0.579	–
E13 [9], 37 nM	0.386	–
E13 [9], 111.1 nM	0.499	–
E13 [9], 333.3 nM	0.627	–
E13 [9], 1000 nM	0.606	–
E13 [9], 3000 nM	0.743	–
E21 [7], 4.1 nM	–	1.1
E21 [7], 12.3 nM	–	1.17
E21 [7], 37 nM	–	1.05
E21 [7], 111.1 nM	–	1.13
E21 [7], 333.3 nM	–	1.13
E21 [7], 1000 nM	–	1.07
E21 [7], 3000 nM	–	0.82
E21 [14], 4.1 nM	0.845	–
E21 [14], 12.3 nM	0.782	–
E21 [14], 37 nM	0.67	–
E21 [14], 111.1 nM	0.818	–
E21 [14], 333.3 nM	0.929	–
E21 [14], 1000 nM	0.701	–
E21 [14], 3000 nM	1.59	–
E28 [6], 4.1 nM	–	1.14
E28 [6], 12.3 nM	–	1.14
E28 [6], 37 nM	–	1.14
E28 [6], 111.1 nM	–	0.988
E28 [6], 333.3 nM	–	1.06
E28 [6], 1000 nM	–	1.12
E28 [6], 3000 nM	–	0.739
E28 [13], 4.1 nM	1.01	–
E28 [13], 12.3 nM	0.675	–
E28 [13], 37 nM	0.613	–
E28 [13], 111.1 nM	0.631	–
E28 [13], 333.3 nM	0.646	–
E28 [13], 1000 nM	0.601	–
E28 [13], 3000 nM	0.879	–
E31 [5], 4.1 nM	–	0.989
E31 [5], 12.3 nM	–	1.02
E31 [5], 37 nM	–	1.02
E31 [5], 111.1 nM	–	0.921
E31 [5], 333.3 nM	–	0.973
E31 [5], 1000 nM	–	1.06
E31 [5], 3000 nM	–	0.941
E31 [12], 4.1 nM	0.665	–
E31 [12], 12.3 nM	0.919	–
E31 [12], 37 nM	0.653	–
E31 [12], 111.1 nM	0.43	–
E31 [12], 333.3 nM	0.486	–
E31 [12], 1000 nM	0.737	–
E31 [12], 3000 nM	0.899	–
E34 [4], 4.1 nM	–	1.08
E34 [4], 12.3 nM	–	0.923
E34 [4], 37 nM	–	0.995
E34 [4], 111.1 nM	–	1.06
E34 [4], 333.3 nM	–	1.04
E34 [4], 1000 nM	–	1.03
E34 [4], 3000 nM	–	0.818
E34 [11], 4.1 nM	0.805	–
E34 [11], 12.3 nM	0.881	–
E34 [11], 37 nM	0.524	–
E34 [11], 111.1 nM	0.804	–
E34 [11], 333.3 nM	0.741	–
E34 [11], 1000 nM	0.759	–
E34 [11], 3000 nM	1.45	–
E57 [3], 4.1 nM	–	1.04
E57 [3], 12.3 nM	–	1.07
E57 [3], 37 nM	–	1.02
E57 [3], 111.1 nM	–	0.975
E57 [3], 333.3 nM	–	1.12
E57 [3], 1000 nM	–	1.03
E57 [3], 3000 nM	–	0.96
E57 [10], 4.1 nM	0.899	–
E57 [10], 12.3 nM	1.11	–
E57 [10], 37 nM	0.644	–
E57 [10], 111.1 nM	0.447	–
E57 [10], 333.3 nM	1.15	–
E57 [10], 1000 nM	0.55	–
E57 [10], 3000 nM	1.16	–
FT3469 [1], 4.1 nM	–	1.08
FT3469 [1], 12.3 nM	–	1.38
FT3469 [1], 37 nM	–	1
FT3469 [1], 111.1 nM	–	1.2
FT3469 [1], 333.3 nM	–	0.863
FT3469 [1], 1000 nM	–	1.25
FT3469 [1], 3000 nM	–	0.973
FT3469 [8], 4.1 nM	0.579	–
FT3469 [8], 12.3 nM	0.768	–
FT3469 [8], 37 nM	0.688	–
FT3469 [8], 111.1 nM	0.824	–
FT3469 [8], 333.3 nM	0.788	–
FT3469 [8], 1000 nM	2.5	–
FT3469 [8], 3000 nM	0.402	–
